PubChem BioAssay AID1918956 (Molecular Pharmacology Branch, DTP, NCI, 2023)

Tested on: OVCAR-5 complex spheroids, viability
Assay: Anticancer human tumor OVCAR-5 cell line growth inhibition;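 further: spheroids exposed to agents for seven days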;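 on viability, T/C: 100% = DMSO vehicle control wells viability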
Settings: for IC50: curve of first compound; for viability, T/C: stronger effect = lower value
Source text: Multicellular complex tumor spheroid response to LSD1 Inhibitor Iadademstat in combination with a variety of drugs and investigational agents in selected tumor cell lines
The current study was undertaken to assess response to LSD1 inhibitors in combination with standard-of-care drugs and investigational agents in solid tumor complex spheroid models as well as in the K-562 leukemia. Complex spheroids include a stromal component modeled by human endothelial cells (HUVEC) and fibroblasts modeled by human mesenchymal stem cells (MSCs). The concentration ranges selected for each drug and investigational agent were based upon clinically achievable concentrations if the clinical Cmax of the agent was known.
Compounds. The drugs and investigational agents used in this study are listed on Table 1. All of the agents used, including staurosporine (NSC755774) and gemcitabine (NSC613327), were obtained from the Developmental Therapeutics Program, NCI. FDA-approved anticancer drugs are available from the NCI at http://dtp.nci.nih.gov/branches/dscb/oncology_drugset_explanation.html. Drugs and investigational agents were >95% pure by proton nuclear magnetic resonance (NMR) and liquid chromatography/mass spectrometry (LC/MS). Stock solutions were prepared at 400x in DMSO, stored at -70 degrees C, and diluted in fresh medium prior to their use. The final concentration of DMSO in cell culture wells never exceeded 0.25% (v/v). The FDA-approved anticancer drug set is available from the Developmental Therapeutics Program at https://dtp.cancer.gov/organization/dscb/obtaining/available_plates.htm. All drugs and investigational agents were tested over a range starting from a high concentration at or near the clinical Cmax and decreasing in half-log increments. If the clinical Cmax for an agent had not been determined, the highest concentration tested was 10 microM.
Cell Lines. The patient-derived cancer cell (PDC) lines: 292921-168-R-J2-PDC, K24384-001-R-PDC, and 521955-158-R2-J5-PDC pancreatic carcinomas, 556581-035-R-J1 ovarian carcinoma, 324938-238-R-J1-PDC, 855422-203-R-J1-PDC and 883617-216-R-J1-PDC urothelial bladder carcinomas, 743489-274-T-PDC renal cell carcinoma, 138582-R-J1 Merkel cell tumor, K60290-347-R-J1 and K57222-313-R-J1-PDC glioblastomas, 653999-131-R-J2-PDC, LG0703-F948-PDC, and 349418-098-R-PDC non-small cell lung carcinomas, 885512-296-R-J2-PDC, 171881-019-R-J1-PDC breast carcinomas and 186277-243-T-J2-PDC and 233499-124-R-J2-PDC colon carcinomas were obtained from the NCI Patient-Derived Models Repository (PDMR, https://pdmr.cancer.gov). The established cell lines NCI/ADR-RES (RRID:CVCL_14520 and OVCAR-5 (RRID:CVCL_1628) ovarian carcinomas, 786-O (RRID:CVCL_1051) and A498 […] renal cell carcinoma, NCI-H211 (ATCC, cat. CRL-5824; RRID:CVCL_1529), NCI-H196 (ATCC, cat. CRL-5823, RRID:CVCL_1509), SW 1271 (ATCC, cat. CRL-2177, RRID:CVCL_1716) and NCI-H1876 (ATCC, cat. CRL-5902, RRID:CVCL_1503) small cell lung carcinomas, MDA-MB-231 (RRID:CVCL_0062) and MDA-MB-468 (RRID:CVCL_0419)breast carcinomas (10-12). Pooled donor human umbilical vein endothelial cells (HUVEC, Lonza, cat. CC-2519) and human mesenchymal stem cells (hMSC, Lonza, cat. PT-2501) were purchased from Lonza (Walkersville, MD).
Cell Culture. All cells were maintained in an incubator at 37 degrees C and 5% CO2 with 95% humidity. The PDC lines were cultured according to standard operating procedures established by the NCI PDMR (https://pdmr.cancer.gov). Briefly all PDCs were thawed and cultured in Matrigel-coated flasks prepared with a working solution of 1X Ham's F-12 nutrient mix, without supplementation (Invitrogen, Waltham, MA, cat. 11765054), 100 U/mL penicillin-streptomycin (Invitrogen, cat. 15140122), and 2.5% Matrigel (Corning Inc., Corning, NY, cat. 354248) for the first three passages. […]

[1] = second compound 0.1 µM, first compound 0.000949 µM
[2] = second compound 0.1 µM, first compound 0.003 µM
[3] = second compound 0.1 µM, first compound 0.00949 µM
[4] = second compound 0.1 µM, first compound 0.03 µM
[5] = second compound 0.1 µM, first compound 0.0949 µM
[6] = second compound 0.1 µM, first compound 0.3 µM
[7] = second compound 0.316 µM, first compound 0.000949 µM
[8] = second compound 0.316 µM, first compound 0.003 µM
[9] = second compound 0.316 µM, first compound 0.00949 µM
[10] = second compound 0.316 µM, first compound 0.03 µM
[11] = second compound 0.316 µM, first compound 0.0949 µM
[12] = second compound 0.316 µM, first compound 0.3 µM
[13] = second compound 1 µM, first compound 0.000949 µM
[14] = second compound 1 µM, first compound 0.003 µM
[15] = second compound 1 µM, first compound 0.00949 µM
[16] = second compound 1 µM, first compound 0.03 µM
[17] = second compound 1 µM, first compound 0.0949 µM
[18] = second compound 1 µM, first compound 0.3 µM
[19] = second compound 3.16 µM, first compound 0.000949 µM
[20] = second compound 3.16 µM, first compound 0.003 µM
[21] = second compound 3.16 µM, first compound 0.00949 µM
[22] = second compound 3.16 µM, first compound 0.03 µM
[23] = second compound 3.16 µM, first compound 0.0949 µM
[24] = second compound 3.16 µM, first compound 0.3 µM
[25] = second compound 10 µM, first compound 0.000949 µM
[26] = second compound 10 µM, first compound 0.003 µM
[27] = second compound 10 µM, first compound 0.00949 µM
[28] = second compound 10 µM, first compound 0.03 µM
[29] = second compound 10 µM, first compound 0.0949 µM
[30] = second compound 10 µM, first compound 0.3 µM

## CCc1c2c(nc3ccc(O)cc13)-c1cc3c(c(=O)n1C2)COC(=O)[C@]3(O)CC + NC1CC1c1ccc(-c2cccc(O)c2)cc1
Second compound 0.1 µM
  IC50: < 0.949 nM
Second compound 0.316 µM
  IC50: < 0.949 nM
Second compound 1 µM
  IC50: < 0.949 nM
Second compound 3.16 µM
  IC50: < 0.949 nM
Second compound 10 µM
  IC50: < 0.949 nM
[1]
  viability, T/C: 33%
[2]
  viability, T/C: 17.4%
[3]
  viability, T/C: 7.17%
[4]
  viability, T/C: 2.96%
[5]
  viability, T/C: 0.9%
[6]
  viability, T/C: 0.46%
[7]
  viability, T/C: 31.7%
[8]
  viability, T/C: 18.4%
[9]
  viability, T/C: 7.68%
[10]
  viability, T/C: 2.91%
[11]
  viability, T/C: 0.78%
[12]
  viability, T/C: 0.44%
[13]
  viability, T/C: 31.3%
[14]
  viability, T/C: 18%
[15]
  viability, T/C: 7.01%
[16]
  viability, T/C: 3.01%
[17]
  viability, T/C: 0.61%
[18]
  viability, T/C: 0.46%
[19]
  viability, T/C: 32.2%
[20]
  viability, T/C: 18.7%
[21]
  viability, T/C: 8.72%
[22]
  viability, T/C: 4.14%
[23]
  viability, T/C: 0.87%
[24]
  viability, T/C: 0.58%
[25]
  viability, T/C: 34%
[26]
  viability, T/C: 19.9%
[27]
  viability, T/C: 8.18%
[28]
  viability, T/C: 4.37%
[29]
  viability, T/C: 0.68%
[30]
  viability, T/C: 0.41%

## Nc1ccn(C2OC(CO)C(O)C2(F)F)c(=O)n1 (stereo not given) + NC1CC1c1ccc(-c2cccc(O)c2)cc1
Second compound 0.1 µM
  IC50: < 0.949 nM
Second compound 0.316 µM
  IC50: < 0.949 nM
Second compound 1 µM
  IC50: < 0.949 nM
Second compound 3.16 µM
  IC50: < 0.949 nM
Second compound 10 µM
  IC50: < 0.949 nM
[1]
  viability, T/C: 25.5%
[2]
  viability, T/C: 27.5%
[3]
  viability, T/C: 26.3%
[4]
  viability, T/C: 27.9%
[5]
  viability, T/C: 24.9%
[6]
  viability, T/C: 26.1%
[7]
  viability, T/C: 26.9%
[8]
  viability, T/C: 26.6%
[9]
  viability, T/C: 28%
[10]
  viability, T/C: 27.6%
[11]
  viability, T/C: 27.1%
[12]
  viability, T/C: 28.5%
[13]
  viability, T/C: 27.1%
[14]
  viability, T/C: 25%
[15]
  viability, T/C: 24.1%
[16]
  viability, T/C: 27.9%
[17]
  viability, T/C: 24.8%
[18]
  viability, T/C: 25.4%
[19]
  viability, T/C: 27.5%
[20]
  viability, T/C: 28.6%
[21]
  viability, T/C: 27.1%
[22]
  viability, T/C: 27.9%
[23]
  viability, T/C: 29.5%
[24]
  viability, T/C: 25.9%
[25]
  viability, T/C: 29%
[26]
  viability, T/C: 29.1%
[27]
  viability, T/C: 28.6%
[28]
  viability, T/C: 26.9%
[29]
  viability, T/C: 28.9%
[30]
  viability, T/C: 28.4%

## O=C(c1cc(Cc2n[nH]c(=O)c3ccccc23)ccc1F)N1CCN(C(=O)C2CC2)CC1 + NC1CC1c1ccc(-c2cccc(O)c2)cc1
Second compound 0.1 µM
  IC50: > 10000 nM
Second compound 0.316 µM
  IC50: > 10000 nM
Second compound 1 µM
  IC50: > 10000 nM
Second compound 3.16 µM
  IC50: > 10000 nM
Second compound 10 µM
  IC50: > 10000 nM
Second compound 0.1 µM, first compound 0.0316 µM
  viability, T/C: 97.6%
Second compound 0.1 µM, first compound 0.1 µM
  viability, T/C: 112%
Second compound 0.1 µM, first compound 0.316 µM
  viability, T/C: 102%
Second compound 0.1 µM, first compound 1 µM
  viability, T/C: 88%
Second compound 0.1 µM, first compound 3.16 µM
  viability, T/C: 76.9%
Second compound 0.1 µM, first compound 10 µM
  viability, T/C: 74.9%
Second compound 0.316 µM, first compound 0.0316 µM
  viability, T/C: 114%
Second compound 0.316 µM, first compound 0.1 µM
  viability, T/C: 104%
Second compound 0.316 µM, first compound 0.316 µM
  viability, T/C: 99.4%
Second compound 0.316 µM, first compound 1 µM
  viability, T/C: 93.7%
Second compound 0.316 µM, first compound 3.16 µM
  viability, T/C: 85.3%
Second compound 0.316 µM, first compound 10 µM
  viability, T/C: 73.8%
Second compound 1 µM, first compound 0.0316 µM
  viability, T/C: 94.9%
Second compound 1 µM, first compound 0.1 µM
  viability, T/C: 105%
Second compound 1 µM, first compound 0.316 µM
  viability, T/C: 93.7%
Second compound 1 µM, first compound 1 µM
  viability, T/C: 81.2%
Second compound 1 µM, first compound 3.16 µM
  viability, T/C: 81.5%
Second compound 1 µM, first compound 10 µM
  viability, T/C: 72.3%
Second compound 3.16 µM, first compound 0.0316 µM
  viability, T/C: 97.9%
Second compound 3.16 µM, first compound 0.1 µM
  viability, T/C: 86.9%
Second compound 3.16 µM, first compound 0.316 µM
  viability, T/C: 96.9%
Second compound 3.16 µM, first compound 1 µM
  viability, T/C: 83%
Second compound 3.16 µM, first compound 3.16 µM
  viability, T/C: 71%
Second compound 3.16 µM, first compound 10 µM
  viability, T/C: 65.5%
Second compound 10 µM, first compound 0.0316 µM
  viability, T/C: 95.8%
Second compound 10 µM, first compound 0.1 µM
  viability, T/C: 87%
Second compound 10 µM, first compound 0.316 µM
  viability, T/C: 70.5%
Second compound 10 µM, first compound 1 µM
  viability, T/C: 81.9%
Second compound 10 µM, first compound 3.16 µM
  viability, T/C: 73.2%
Second compound 10 µM, first compound 10 µM
  viability, T/C: 60.2%
